Measurements published in patent US8129427B2, “2-phenylethylamino derivatives as calcium and/or sodium channel modulators” (Newron Pharmaceuticals S.p.A., priority 2005, dated 2012).
Counter-ions that a name gives are not always drawn. Like-named read-outs stand apart in the source and are kept apart here.

Experiments:
MAO-B = molecular target: T1, MAO-B (Rattus norvegicus, UniProt P19643); assay: In vitro MAO-B enzyme activity radioenzymatic assay; assay type: biochemical; settings: 100 μM compound, rat brain crude mitochondrial fraction, 14C-PEA substrate
T1 construct: from tissue; host or cells: rat brain crude mitochondrial fraction
T1 sequence (P19643 1-520): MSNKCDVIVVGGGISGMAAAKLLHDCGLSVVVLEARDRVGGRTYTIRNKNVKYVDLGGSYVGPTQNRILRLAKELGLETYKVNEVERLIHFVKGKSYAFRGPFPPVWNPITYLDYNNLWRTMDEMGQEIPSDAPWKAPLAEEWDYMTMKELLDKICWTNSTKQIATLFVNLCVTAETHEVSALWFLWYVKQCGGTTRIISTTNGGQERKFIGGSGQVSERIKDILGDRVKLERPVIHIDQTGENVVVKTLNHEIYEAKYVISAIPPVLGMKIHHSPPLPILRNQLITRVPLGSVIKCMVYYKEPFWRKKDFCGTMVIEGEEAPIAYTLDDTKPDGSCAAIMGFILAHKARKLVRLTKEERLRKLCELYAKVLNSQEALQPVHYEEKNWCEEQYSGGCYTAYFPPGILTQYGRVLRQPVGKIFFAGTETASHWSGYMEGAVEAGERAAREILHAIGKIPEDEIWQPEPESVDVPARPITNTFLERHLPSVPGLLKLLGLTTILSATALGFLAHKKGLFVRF
Procedure: Male Wistar rats (Harlan, Italy—175-200 g) were sacrificed under light anaesthesia and brains were rapidly removed and homogenized in 8 volumes of ice-cold 0.32 M sucrose buffer containing 0.1 M EDTA, pH 7.4. The crude homogenate was centrifuged at 2220 rpm for 10 minutes and the supernatant recovered. The pellet was homogenized and centrifuged again. The two supernatants were pooled and centrifuged at 9250 rpm for 10 minutes at +4° C. The pellet was resuspended in fresh buffer and centrifuged at 11250 rpm for 10 minutes at +4° C. The resulting pellet was stored at −80° C.
The enzyme activities were assessed with a radioenzymatic assay using the substrates ^14C-serotonin (5-HT) and ^14C-phenylethylamine (PEA) for MAO-A and MAO-B, respectively.
The mitochondrial pellet (500 μg protein) was resuspended in 0.1 M phosphate buffer (pH 7.4). 500 μl of the suspension were added to a 50 μl solution of the test compound or buffer, and incubated for 30 min at 37° C. (preincubation) then the substrate (50 μl) was added. The incubation was carried out for 30 minutes at 37° C. (^14C-5-HT, 5 μM) or for 10 minutes at 37° C. (^14C-PEA, 0.5 μM).
The reaction was stopped by adding 0.2 ml of 37% HCl or perchloric acid. After centrifugation, the deaminated metabolites were extracted with 3 ml of diethyl ether (5-HT) or toluene (PEA) and the radioactive organic phase was measured by liquid scintillation spectrometry at 90% efficiency. The amount of neutral and/or acidic metabolites formed as a result of MAO activity was obtained by measuring the radioactivity of the eluate.
The activity of MAO in the sample, corresponding to a percentage of radioactivity compared with the control activity in the absence of the inhibitor, was expressed as nmoles of substrate transformed/mg protein/min.

N-type calcium channels = N-type calcium channels (Homo sapiens, UniProt Q00975); assay: N-type calcium channel influx assay (fluorescence); assay type: cell-based
L-type calcium channels = assay type: cell-based, mouse; settings: AtT20/D16v-F2 cells, ω-conotoxin 1 μM, 100 mM KCl depolarization
[1] = molecular target: recombinant human N-type channels, h α1B (hCav2.2)+β1b+α2δ-1 subunits (Homo sapiens, UniProt Q00975); assay: Patch clamp studies of calcium currents inhibition in HEK293 cells; assay type: cell-based; settings: tonic block, preconditioning −50/−55 mV (half maximal steady-state inactivated condition); read-out: IC50 (Vhalf)
Procedure: Functional inhibition of the N-type Ca currents was studied using whole cell patch clamp methods (Hamill O. P., Marty A., Neher E., Sakmann B., Sigworth F. J. Pflugers Arch. (1981) 391: 85-100) on HEK293 cells expressing recombinant human N-type channels, obtained after transient transfection of h α1B (hCav2.2)+β1b+α2δ-1 subunits.
Membrane currents were recorded and filtered at 5 kHz with an Axon Axopatch 200B amplifier and digitized with an Axon Digidata 1322A (Axon Instruments, CA, USA). Voltage clamping of membrane potentials and data acquisition were controlled online with Axon pClamp8 software. Measuring and reference electrodes were AgCl—Ag electrodes. Cells had initial seal resistances of >1 GΩ and access resistances of 4.2±0.2 MΩ. Cells were continuously superfused with extracellular solutions using a Biologic RSC-200.
For calcium currents recording the control bath solution contained (mM): Choline chloride (70), MgCl2 (1), BaCl2 (20), TEA.Cl (50), Hepes (10), Glucose (10). Internal pipette solution consisted of (mM): CsCl (140), EGTA (10), MgCl2 (2), Hepes (10), MgATP (1), GTP Tris (0.3).
Compounds were dissolved as 20 mM stock solutions in DMSO and then diluted to the final concentration in the external solutions.
A two-step protocol was used to determine the voltage dependence of the block:
N-type current was activated by a 600 ms step pulse to +10 mV (test pulse) from a 5000 ms preconditioning potential of −110 mV (resting condition) or −50/−55 mV (half maximal steady-state inactivated condition), respectively.
The amplitude of calcium current peaks evoked by the respective test pulses at a frequency of 0.06 Hz were measured before and after exposure to the test substance. Tonic block of currents was calculated as the difference between the peak calcium current measured at the end of a stabilization period in the control external bath solution and peak currents measured at the end of test substance perfusion period (when steady state is reached) divided by control peaks. […]

TTXs sodium channels = assay: TTXs-sodium channel influx assay (membrane potential fluorescence); assay type: cell-based, rat; settings: ND7/23 cells, veratridine 100 μM
Procedure: ND7/23 rat dorsal root ganglion-derived cell line endogenously expresses a mixed population of TTXs sodium channels (such as Nav1.3, Nav1.2, Nav1.1, Nav1.6). These cells lack of TTXr sodium channels as shown by the absence of their respective transcripts. ND7/23 cells were grown in DMEM supplemented with 10% FBS and 1 mM sodium piruvate.
The cells were seeded at 50,000 cells/well on 96 poly-L-lysine-coated plates and further incubated for 18-24 h before use.
The Membrane Potential Kit Assay (Molecular Devices), based on a negatively charged fluorescent dye able to monitor changes in membrane potential caused by the sodium influx due to the channel opening, was used for the assay.
Cells were incubated with the dye loading for 30 minutes at 25° C. Then, 100 nM of the toxin Anemonia sulcata (used as enhancer of the channel opener response) alone or in the presence of TTX (as reference standard) or test compound were added for further 15 minutes.
The fluorescence (excitation: 530 nm, emission: 565 nm wavelength) was measured before and after (40-45 s) the automated injection of the sodium channel opener veratridine (100 μM) using a Victor plate reader (Perkin Elmer).
The inhibition curves were calculated from 5 concentrations, each in triplicate, and the IC50 determined using a linear regression analysis.

[2] = differentiated IMR32 cells, nifedipine 1 μM, 100 mM KCl depolarization, read-out: IC50

Sequence of N-type calcium channels (Q00975 whole entry): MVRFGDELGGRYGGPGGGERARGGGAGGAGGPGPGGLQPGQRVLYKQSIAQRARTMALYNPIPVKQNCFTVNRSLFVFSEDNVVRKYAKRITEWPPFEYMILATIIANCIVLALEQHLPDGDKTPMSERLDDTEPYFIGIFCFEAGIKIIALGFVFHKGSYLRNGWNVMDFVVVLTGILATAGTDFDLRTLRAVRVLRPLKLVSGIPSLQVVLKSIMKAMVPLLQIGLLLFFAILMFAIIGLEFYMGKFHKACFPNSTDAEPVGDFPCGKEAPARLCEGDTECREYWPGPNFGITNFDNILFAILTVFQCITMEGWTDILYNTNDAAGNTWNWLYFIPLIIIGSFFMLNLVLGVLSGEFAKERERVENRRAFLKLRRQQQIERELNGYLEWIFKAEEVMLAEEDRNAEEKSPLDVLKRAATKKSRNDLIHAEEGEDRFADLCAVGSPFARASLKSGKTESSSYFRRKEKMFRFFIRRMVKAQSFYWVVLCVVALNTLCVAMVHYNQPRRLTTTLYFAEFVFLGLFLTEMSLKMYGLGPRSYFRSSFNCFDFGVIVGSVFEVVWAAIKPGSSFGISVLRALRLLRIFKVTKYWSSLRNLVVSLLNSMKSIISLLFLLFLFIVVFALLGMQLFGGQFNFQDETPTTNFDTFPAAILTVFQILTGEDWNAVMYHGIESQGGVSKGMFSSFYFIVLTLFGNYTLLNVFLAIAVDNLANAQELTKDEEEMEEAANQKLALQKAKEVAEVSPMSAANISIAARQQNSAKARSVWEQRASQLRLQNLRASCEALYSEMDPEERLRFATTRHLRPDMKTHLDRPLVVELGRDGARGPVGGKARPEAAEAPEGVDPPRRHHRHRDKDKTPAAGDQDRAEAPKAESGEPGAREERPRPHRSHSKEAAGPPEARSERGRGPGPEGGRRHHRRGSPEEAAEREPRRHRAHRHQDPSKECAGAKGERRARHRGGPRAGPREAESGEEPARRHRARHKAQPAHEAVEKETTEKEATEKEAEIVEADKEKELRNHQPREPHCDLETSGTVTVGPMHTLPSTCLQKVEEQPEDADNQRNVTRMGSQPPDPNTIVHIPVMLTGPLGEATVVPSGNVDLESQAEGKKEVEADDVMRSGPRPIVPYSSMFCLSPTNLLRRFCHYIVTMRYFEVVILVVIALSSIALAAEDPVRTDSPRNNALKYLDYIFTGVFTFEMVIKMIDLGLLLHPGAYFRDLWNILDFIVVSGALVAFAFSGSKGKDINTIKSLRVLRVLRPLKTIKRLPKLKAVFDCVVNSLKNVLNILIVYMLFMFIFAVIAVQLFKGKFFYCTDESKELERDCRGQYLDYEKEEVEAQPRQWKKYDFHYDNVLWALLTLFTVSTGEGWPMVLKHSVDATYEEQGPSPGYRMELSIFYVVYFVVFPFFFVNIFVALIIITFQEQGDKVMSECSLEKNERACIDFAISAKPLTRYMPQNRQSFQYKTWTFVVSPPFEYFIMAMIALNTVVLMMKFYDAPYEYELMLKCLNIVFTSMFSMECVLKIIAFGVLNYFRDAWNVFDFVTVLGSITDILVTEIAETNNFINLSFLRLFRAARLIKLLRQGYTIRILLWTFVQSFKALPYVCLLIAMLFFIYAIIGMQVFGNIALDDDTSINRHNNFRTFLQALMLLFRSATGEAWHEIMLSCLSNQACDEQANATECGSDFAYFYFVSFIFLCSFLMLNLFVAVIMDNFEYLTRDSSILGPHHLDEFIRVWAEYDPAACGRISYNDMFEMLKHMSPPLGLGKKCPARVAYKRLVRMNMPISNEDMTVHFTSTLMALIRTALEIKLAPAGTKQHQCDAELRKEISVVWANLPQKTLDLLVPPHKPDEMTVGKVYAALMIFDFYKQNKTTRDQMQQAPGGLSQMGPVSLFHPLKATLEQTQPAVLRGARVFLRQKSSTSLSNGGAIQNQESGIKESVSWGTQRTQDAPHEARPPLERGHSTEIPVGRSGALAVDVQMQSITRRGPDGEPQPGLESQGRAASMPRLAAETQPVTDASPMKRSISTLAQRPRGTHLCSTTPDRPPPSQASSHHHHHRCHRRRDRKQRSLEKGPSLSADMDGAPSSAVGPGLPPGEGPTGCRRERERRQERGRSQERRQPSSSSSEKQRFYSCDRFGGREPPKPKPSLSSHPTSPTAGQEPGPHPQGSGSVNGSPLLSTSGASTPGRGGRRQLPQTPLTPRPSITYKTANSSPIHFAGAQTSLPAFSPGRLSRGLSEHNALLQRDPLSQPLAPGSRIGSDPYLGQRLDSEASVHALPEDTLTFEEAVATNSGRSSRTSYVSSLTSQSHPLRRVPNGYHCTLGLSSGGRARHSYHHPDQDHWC
Sequence of N-type calcium channels (Q02641 whole entry partner): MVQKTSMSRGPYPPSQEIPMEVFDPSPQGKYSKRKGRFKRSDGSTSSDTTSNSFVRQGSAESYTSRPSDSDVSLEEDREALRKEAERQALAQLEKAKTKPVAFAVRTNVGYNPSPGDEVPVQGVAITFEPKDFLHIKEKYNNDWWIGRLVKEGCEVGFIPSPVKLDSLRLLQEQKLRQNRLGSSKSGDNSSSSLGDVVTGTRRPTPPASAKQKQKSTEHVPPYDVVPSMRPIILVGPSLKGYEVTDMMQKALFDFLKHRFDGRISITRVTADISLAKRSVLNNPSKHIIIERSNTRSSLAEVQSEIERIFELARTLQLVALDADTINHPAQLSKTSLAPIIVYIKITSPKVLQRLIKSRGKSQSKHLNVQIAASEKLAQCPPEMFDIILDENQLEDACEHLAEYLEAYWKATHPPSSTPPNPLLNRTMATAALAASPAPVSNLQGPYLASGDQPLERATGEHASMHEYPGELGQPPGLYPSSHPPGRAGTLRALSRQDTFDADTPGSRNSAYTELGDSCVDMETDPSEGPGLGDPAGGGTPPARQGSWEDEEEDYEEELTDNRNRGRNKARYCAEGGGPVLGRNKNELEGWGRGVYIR
Sequence of N-type calcium channels (P54289 25-956 partner limits assumed): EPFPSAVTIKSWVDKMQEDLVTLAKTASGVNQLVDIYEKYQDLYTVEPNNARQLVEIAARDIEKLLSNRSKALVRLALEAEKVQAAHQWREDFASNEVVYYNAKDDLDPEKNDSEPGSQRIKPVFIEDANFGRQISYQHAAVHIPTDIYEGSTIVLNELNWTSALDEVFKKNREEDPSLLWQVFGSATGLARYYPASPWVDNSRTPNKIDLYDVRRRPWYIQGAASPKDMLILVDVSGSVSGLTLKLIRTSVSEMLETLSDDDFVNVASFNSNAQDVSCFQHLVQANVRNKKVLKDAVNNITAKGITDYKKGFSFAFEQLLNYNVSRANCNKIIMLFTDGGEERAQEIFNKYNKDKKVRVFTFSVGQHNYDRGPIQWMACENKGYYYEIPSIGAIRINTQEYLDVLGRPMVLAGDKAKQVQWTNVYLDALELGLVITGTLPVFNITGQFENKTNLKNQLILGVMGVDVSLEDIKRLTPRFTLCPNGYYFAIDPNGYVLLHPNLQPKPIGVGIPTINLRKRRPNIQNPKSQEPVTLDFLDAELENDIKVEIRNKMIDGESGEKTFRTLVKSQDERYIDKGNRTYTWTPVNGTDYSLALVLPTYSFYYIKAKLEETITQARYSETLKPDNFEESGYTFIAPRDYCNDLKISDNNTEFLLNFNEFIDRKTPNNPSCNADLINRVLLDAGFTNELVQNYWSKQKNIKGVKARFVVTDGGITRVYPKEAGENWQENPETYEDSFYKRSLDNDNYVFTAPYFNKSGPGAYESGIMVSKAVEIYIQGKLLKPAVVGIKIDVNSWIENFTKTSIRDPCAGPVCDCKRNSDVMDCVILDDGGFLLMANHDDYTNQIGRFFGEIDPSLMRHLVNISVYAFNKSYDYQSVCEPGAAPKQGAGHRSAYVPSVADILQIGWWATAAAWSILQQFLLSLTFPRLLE
Sequence of N-type calcium channels (P54289 957-1103 partner limits assumed): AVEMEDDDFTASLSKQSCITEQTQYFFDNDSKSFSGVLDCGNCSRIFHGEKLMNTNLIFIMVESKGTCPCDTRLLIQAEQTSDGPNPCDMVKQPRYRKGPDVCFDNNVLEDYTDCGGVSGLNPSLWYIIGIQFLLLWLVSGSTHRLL
Sequence of recombinant human N-type channels, h α1B (hCav2.2)+β1b+α2δ-1 subunits (Q00975 whole entry): as the sequence (Q00975 whole entry) above
Sequence of recombinant human N-type channels, h α1B (hCav2.2)+β1b+α2δ-1 subunits (Q02641 whole entry partner): as the sequence (Q02641 whole entry partner) above
Sequence of recombinant human N-type channels, h α1B (hCav2.2)+β1b+α2δ-1 subunits (P54289 25-956 partner limits assumed): as the sequence (P54289 25-956 partner limits assumed) above
Sequence of recombinant human N-type channels, h α1B (hCav2.2)+β1b+α2δ-1 subunits (P54289 957-1103 partner limits assumed): as the sequence (P54289 957-1103 partner limits assumed) above

Compound	inhibition at 100 µM (MAO-B) [%]	IC50 (N-type calcium channels; [2]) [µM]	IC50 (L-type calcium channels) [µM]	IC50 [1] [µM]	IC50 (TTXs sodium channels) [µM]	IC50 (N-type calcium channels) [µM]
CNC(=O)CN(CCc1ccc(OCc2cccc(F)c2)c(OC)c1)CC(C)C [Example 2, 2-[[2-[4-(3-Fluoro-benzyloxy)-3-methoxy-phenyl]-ethyl]-isobutylamino]-N-methyl-acetamide hydrochloride]	53	4.8	3.1	–	–	–
CNC(=O)CN(CCc1ccc(OCc2cccc(F)c2)c(OC)c1)CC1CCOC1 (stereo not shown) [Example 7, 2-[[2-[4-(3-Fluoro-benzyloxy)-3-methoxy-phenyl]-ethyl]-(tetrahydrofuran-3-ylmethyl)amino]-N-methyl-acetamide hydrochloride]	–	–	–	11	–	–
CNC(=O)CN(CCc1ccc(OCc2cccc(F)c2)c(OC)c1)Cc1ccoc1 [Example 10, 2-[[2-[4-(3-Fluoro-benzyloxy)-3-methoxy-phenyl]-ethyl]-(furan-3-ylmethyl)amino]-N-methyl-acetamide hydrochloride]	–	–	1.7	–	–	–
CNC(=O)CN(CCc1ccc(OCc2cccc(F)c2)c(OC)c1)Cc1ccc(OC)nc1 [Example 14, 2-[[2-[4-(3-Fluoro-benzyloxy)-3-methoxy-phenyl]-ethyl]-(6-methoxy-pyridin-3-ylmethyl)amino]-N-methyl-acetamide]	–	–	–	–	2.9	–
COc1cc(CCN(CC(=O)N(C)C)Cc2ccccc2)ccc1OCc1cccc(F)c1 [Example 20, 2-[[2-[4-(3-Fluoro-benzyloxy)-3-methoxy-phenyl]-ethyl]-benzylamino]-N,N-dimethyl-acetamide hydrochloride]	3	–	4.6	–	–	1.1
CNC(=O)[C@H](CC(C)C)NCCc1ccc(OCc2cccc(F)c2)c(OC)c1 [Example 31, (S)-2-[2-[4-(3-Fluoro-benzyloxy)-3-methoxy-phenyl]-ethylamino]-N-methyl-4-methyl-valeramide]	–	–	1	–	–	–
COc1cc(CCNC(C(=O)N(C)C)c2ccccc2)ccc1OCc1cccc(F)c1 (stereo not shown) [Example 32, 2-[2-[4-(3-Fluoro-benzyloxy)-3-methoxy-phenyl]-ethylamino]-2-phenyl-N,N-dimethyl-acetamide hydrochloride]	0	–	–	–	–	–
COc1cc(CCNC(C(=O)N2CCOCC2)c2ccccc2)ccc1OCc1cccc(F)c1 (stereo not shown) [Example 33, 2-[2-[4-(3-Fluoro-benzyloxy)-3-methoxy-phenyl]-ethylamino]-1-(morpholin-4-yl)-2-phenyl-ethanone hydrochloride]	0	6	7.1	–	2.1	–
CCNC(=O)CN(CCc1ccc(OCc2cccc(F)c2)c(OC)c1)Cc1ccccc1 [Example 37, 2-[[2-[4-(3-Fluoro-benzyloxy)-3-methoxy-phenyl]-ethyl]-benzylamino]-N-ethyl-acetamide hydrochloride]	4	–	–	–	1.2	–
COc1cc(CCN(CC(=O)N2CCCC2)Cc2ccccc2)ccc1OCc1cccc(F)c1 [Example 40, 2-[[2-[4-(3-Fluoro-benzyloxy)-3-methoxy-phenyl]-ethyl]-benzylamino]-1-(pyrrolidin-1-yl)-ethanone hydrochloride]	11	2.2	1.6	–	–	–
COc1cc(CCN(CC(=O)NCC(C)(C)N)Cc2ccccc2)ccc1OCc1cccc(F)c1 [Example 42, 2-[[2-[4-(3-Fluoro-benzyloxy)-3-methoxy-phenyl]-ethyl]-benzylamino]-N-(2-amino-2-methyl-propyl)-acetamide hydrochloride]	32	2.6	2.4	–	–	–
COc1cc(CCN(CC(=O)NCCN(C)C)Cc2ccccc2)ccc1OCc1cccc(F)c1 [Example 43, 2-[[2-[4-(3-Fluoro-benzyloxy)-3-methoxy-phenyl]-ethyl]-benzylamino]-N-(2-dimethylamino-ethyl)-acetamide hydrochloride]	33	1.9	1.2	–	–	–
COc1cc(CCN(CC(=O)NCCC2CCCN2C)Cc2ccccc2)ccc1OCc1cccc(F)c1 (stereo not shown) [Example 44, 2-[[2-[4-(3-Fluoro-benzyloxy)-3-methoxy-phenyl]-ethyl]-benzylamino]-N-[2-(1-methyl-pyrrolidin-2-yl)-ethyl]-acetamide hydrochloride]	39	–	–	–	–	–
CCNC(=O)CN(CCc1ccc(OCc2cccc(F)c2)c(OC)c1)CC1CC1 [Example 47, 2-[[2-[4-(3-Fluoro-benzyloxy)-3-methoxy-phenyl]-ethyl]-(cyclopropylmethyl)amino]-N-ethyl-acetamide hydrochloride]	–	–	1.8	–	–	–
CN(C)CCNC(=O)CN(CCc1cccc(OCc2cccc(F)c2)c1)Cc1ccco1 [Example 71, 2-[[2-[3-(3-Fluoro-benzyloxy)-phenyl]-ethyl]-(furan-2-ylmethyl)amino]-N-(2-dimethylamino-ethyl)-acetamide dihydrochloride]	34	1.9	3.4	–	–	–
CC(C)(N)CNC(=O)CN(CCc1cccc(OCc2cccc(F)c2)c1)Cc1ccco1 [Example 72, 2-[[2-[3-(3-Fluoro-benzyloxy)-phenyl]-ethyl]-(furan-2-ylmethy ° amino]-N-(2-amino-2-methyl-propyl)-acetamidedihydrochloride]	31	2.6	2.9	–	–	–
